Assay results: ChEMBL document CHEMBL1151107, “Inhibition of dopamine beta-hydroxylase by goitrin, a natural antithyroid compound” (J Nat Prod, 1988)

Key:
[1] = biological target: T1, Dopamine beta-hydroxylase (Bos taurus) (UniProt P15101); assay: Inhibition of bovine adrenal dopamine beta-hydroxylase assessed as norepinephrine formation per mg of protein at 0.2 mM after 45 mins
T1 sequence (whole entry): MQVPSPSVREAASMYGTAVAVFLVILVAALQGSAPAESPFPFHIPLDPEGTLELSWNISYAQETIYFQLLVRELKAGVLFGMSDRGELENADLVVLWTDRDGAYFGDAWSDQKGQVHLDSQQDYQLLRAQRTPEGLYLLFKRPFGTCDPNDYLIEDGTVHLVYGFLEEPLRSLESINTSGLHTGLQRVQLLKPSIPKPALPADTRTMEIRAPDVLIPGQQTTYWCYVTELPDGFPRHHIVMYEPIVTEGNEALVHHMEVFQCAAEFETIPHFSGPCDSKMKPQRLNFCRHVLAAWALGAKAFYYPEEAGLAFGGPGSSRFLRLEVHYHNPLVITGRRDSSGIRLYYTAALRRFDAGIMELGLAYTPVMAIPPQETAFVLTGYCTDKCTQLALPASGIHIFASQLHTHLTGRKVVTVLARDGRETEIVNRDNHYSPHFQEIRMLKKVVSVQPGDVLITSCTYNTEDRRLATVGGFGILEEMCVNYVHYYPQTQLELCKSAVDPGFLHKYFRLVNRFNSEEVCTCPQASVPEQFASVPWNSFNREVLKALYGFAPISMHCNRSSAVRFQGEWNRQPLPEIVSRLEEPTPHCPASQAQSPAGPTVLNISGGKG

Rattus norvegicus [2] = assay: Inhibition of dopamine beta-hydroxylase in Sprague-Dawley rat assessed as decrease in brain norepinephrine level at 50 mg/kg, ip after 1 hr by liquid chromatography (RVb=0.222+/-0.069); assay type: functional; conditions: route intraperitoneal
Rattus norvegicus [3] = assay: Inhibition of dopamine beta-hydroxylase in Sprague-Dawley rat assessed as decrease in brain norepinephrine level at 50 mg/kg, ip after 2.5 hrs by liquid chromatography (RVb=0.216+/-0.025); assay type: functional; conditions: route intraperitoneal
Rattus norvegicus [4] = assay: Inhibition of dopamine beta-hydroxylase in Sprague-Dawley rat assessed as decrease in brain norepinephrine level at 50 mg/kg, ip after 6 hrs by liquid chromatography (RVb=0.206+/-0.022); assay type: functional; conditions: route intraperitoneal
[5] = Drug level in Sprague-Dawley rat heart at 50 mg/kg, ip after 4 hrs; assay type: ADME, organism-based; design: dose 50 mg/kg, route intraperitoneal; conditions: read-out: Drug uptake
Rattus norvegicus [6] = assay: Inhibition of dopamine beta-hydroxylase in Sprague-Dawley rat assessed as increase in adrenal dopamine level at 50 mg/kg, ip after 4 hrs by liquid chromatography (RVb=5.9+/-1.0); assay type: functional; conditions: route intraperitoneal
[7] = biological target: T1, Dopamine beta-hydroxylase (Bos taurus); assay: Inhibition of bovine adrenal dopamine beta-hydroxylase assessed as norepinephrine formation per mg of protein at 0.1 mM after 45 mins
[8] = biological target: T1, Dopamine beta-hydroxylase (Bos taurus); assay: Inhibition of bovine adrenal dopamine beta-hydroxylase at 0.1 mM
[9] = Drug level in Sprague-Dawley rat brain at 50 mg/kg, ip after 4 hrs; assay type: ADME, organism-based; design: dose 50 mg/kg, route intraperitoneal; conditions: read-out: Drug uptake
Rattus norvegicus [10] = assay: Inhibition of dopamine beta-hydroxylase in Sprague-Dawley rat assessed as increase in cardiac dopamine level at 50 mg/kg, ip after 4 hrs by liquid chromatography (RVb=0.023+/-0.005); assay type: functional; conditions: route intraperitoneal
[11] = biological target: T1, Dopamine beta-hydroxylase (Bos taurus); assay: Inhibition of bovine adrenal dopamine beta-hydroxylase at 0.2 mM

`Cn1ccnc1S` [METHIMAZOLE] showed an Activity [1] of 53 nmol, an Activity (Rattus norvegicus [2]) of 0.216 µg/g and an Activity (Rattus norvegicus [3]) of 0.143 µg/g. The Activity (Rattus norvegicus [4]) was 0.076 µg/g.

Work on `C=CC1CNC(=S)O1` (stereo unspecified) yielded a concentration at 4 h [5] of 22300 ng/g, an Activity [1] of 49 nmol and an Activity (Rattus norvegicus [6]) of 10 µg/g. It also gave an Activity (Rattus norvegicus [2]) of 0.249 µg/g, an Activity [7] of 77 nmol and an inhibition [8] of 55%. The Activity (Rattus norvegicus [3]) was 0.158 µg/g, the Activity (Rattus norvegicus [4]) was 0.092 µg/g and the concentration at 4 h [9] was 21000 ng/g. The Activity (Rattus norvegicus [10]) was 0.071 µg/g and the inhibition [11] was 78%.

`C=C[C@@H]1CNC(=S)O1` showed an Activity [7] of 62 nmol.
